Experimental data from ChEMBL document CHEMBL1201862, “PubChem BioAssay data set” (2004).
One block for each compound: values may come before it. The source made the active and inactive calls.

What was measured:
[1] = inhibitors of intracellular T. cruzi replication, confirmation, NIH3T3 host cells, beta-gal luminescence (AID 2044); format: functional, cell-based;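 also: intracellular parasites grown in NIH/3T3 mouse fibroblasts as host cells; luminescent beta-galactosidase reporter signal from transgenic T. cruzi replicating inside host cells; inhibitors lower the luminescence signal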
[2] = cytotoxicity toward NIH3T3 fibroblasts, dose response, counter-screen, cell-based, ATP luminescence, mouse fibroblasts (AID 2010); format: functional;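 also: cells exposed to compound for about 90 hours before reading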
[3] = molecular target: Trypsin (Sus scrofa, UniProt P00761); assay: porcine trypsin inhibitors, dose response, selectivity assay for Rce1 protease inhibitor project, biochemical, quenched peptide fluorescence, cherry-pick (AID 488789)
Chain of Trypsin (P00761 whole entry): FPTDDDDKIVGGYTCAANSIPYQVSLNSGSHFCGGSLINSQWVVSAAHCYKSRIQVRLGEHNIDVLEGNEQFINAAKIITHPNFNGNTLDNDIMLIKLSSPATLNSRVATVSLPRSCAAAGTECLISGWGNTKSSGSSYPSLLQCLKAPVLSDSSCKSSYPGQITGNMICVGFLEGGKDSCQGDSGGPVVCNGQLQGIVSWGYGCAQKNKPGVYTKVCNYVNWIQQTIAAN

[4] = molecular target: T1, Ubiquitin-conjugating enzyme E2 N (Homo sapiens, UniProt P61088); format: functional;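 also: Dose-response confirmation in a TR-FRET assay detecting UBC13-driven polyubiquitin chain formation, inhibition measured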
T1 sequence (P61088 whole entry): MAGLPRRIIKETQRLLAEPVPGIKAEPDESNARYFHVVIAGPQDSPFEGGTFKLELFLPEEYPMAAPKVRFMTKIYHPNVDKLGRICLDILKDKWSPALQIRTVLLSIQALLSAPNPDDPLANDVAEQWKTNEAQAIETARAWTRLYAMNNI

[5] = molecular target: T2, CAAX prenyl protease 2 (Homo sapiens, UniProt Q9Y256); assay: human Rce1 protease inhibitors, dose response, biochemical, yeast membranes, quenched-peptide fluorescence, cherry-pick (AID 588849)
T2 sequence (Q9Y256 whole entry): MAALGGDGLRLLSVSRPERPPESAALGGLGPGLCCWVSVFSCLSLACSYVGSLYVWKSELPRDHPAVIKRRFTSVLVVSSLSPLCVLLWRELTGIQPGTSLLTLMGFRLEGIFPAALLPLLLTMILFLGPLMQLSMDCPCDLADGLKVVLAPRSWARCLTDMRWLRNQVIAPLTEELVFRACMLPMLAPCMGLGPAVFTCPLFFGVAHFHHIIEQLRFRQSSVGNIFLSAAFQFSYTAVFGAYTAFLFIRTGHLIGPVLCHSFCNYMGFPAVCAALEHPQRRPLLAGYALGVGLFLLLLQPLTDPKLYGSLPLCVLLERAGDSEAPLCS

[6] = molecular target: DNA repair protein RAD52 homolog (Homo sapiens, UniProt P43351); format: functional, biochemical
Chain of DNA repair protein RAD52 homolog (P43351 whole entry): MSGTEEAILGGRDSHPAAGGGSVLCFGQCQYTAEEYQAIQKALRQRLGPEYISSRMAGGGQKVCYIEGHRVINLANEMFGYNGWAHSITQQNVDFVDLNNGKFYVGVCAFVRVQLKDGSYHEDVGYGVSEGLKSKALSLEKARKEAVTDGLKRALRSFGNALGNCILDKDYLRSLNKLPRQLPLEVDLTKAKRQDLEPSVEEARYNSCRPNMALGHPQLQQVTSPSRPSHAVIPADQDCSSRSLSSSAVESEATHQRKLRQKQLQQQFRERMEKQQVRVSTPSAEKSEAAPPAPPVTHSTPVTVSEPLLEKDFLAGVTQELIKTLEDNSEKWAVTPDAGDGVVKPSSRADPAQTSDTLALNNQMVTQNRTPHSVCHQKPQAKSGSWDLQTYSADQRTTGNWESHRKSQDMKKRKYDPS

[7] = molecular target: DNA repair and recombination protein RAD54-like (Homo sapiens, UniProt Q92698); assay: inhibitors of human RAD54 branch migration, confirmation, biochemical, fluorescence, cherry-picked samples, dose series (AID 651657); format: functional
Chain of DNA repair and recombination protein RAD54-like (Q92698 whole entry): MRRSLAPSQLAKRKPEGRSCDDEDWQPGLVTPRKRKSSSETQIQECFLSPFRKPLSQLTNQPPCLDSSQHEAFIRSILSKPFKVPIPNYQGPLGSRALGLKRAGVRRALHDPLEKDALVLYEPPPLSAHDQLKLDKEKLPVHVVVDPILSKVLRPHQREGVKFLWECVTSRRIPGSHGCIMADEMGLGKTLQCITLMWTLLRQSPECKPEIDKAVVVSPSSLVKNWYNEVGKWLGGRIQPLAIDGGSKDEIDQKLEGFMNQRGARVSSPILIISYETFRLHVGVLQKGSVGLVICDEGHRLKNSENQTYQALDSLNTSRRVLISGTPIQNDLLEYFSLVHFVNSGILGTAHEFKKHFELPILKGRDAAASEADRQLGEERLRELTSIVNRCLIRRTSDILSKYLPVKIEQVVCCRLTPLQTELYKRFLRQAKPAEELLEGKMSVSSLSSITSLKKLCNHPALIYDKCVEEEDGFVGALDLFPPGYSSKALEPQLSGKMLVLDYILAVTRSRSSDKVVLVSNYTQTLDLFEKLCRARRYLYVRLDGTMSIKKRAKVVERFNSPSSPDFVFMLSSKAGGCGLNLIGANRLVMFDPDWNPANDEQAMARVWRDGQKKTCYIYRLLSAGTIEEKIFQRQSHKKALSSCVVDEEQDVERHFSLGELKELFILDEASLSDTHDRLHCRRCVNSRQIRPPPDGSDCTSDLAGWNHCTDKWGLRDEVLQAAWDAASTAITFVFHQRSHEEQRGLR

[8] = HepG2 cell cytotoxicity, dose response, cytotoxicity control, ATP luminescence, cherry-pick, activator set 2 (AID 1053143); format: functional, cell-based
[9] = molecular target: T3, High affinity choline transporter 1 (Homo sapiens, UniProt Q9GZV3); assay: CHT inhibitors, dose response, cell-based, 5-point CRC, membrane potential dye (AID 504840); format: functional
T3 sequence (Q9GZV3 whole entry): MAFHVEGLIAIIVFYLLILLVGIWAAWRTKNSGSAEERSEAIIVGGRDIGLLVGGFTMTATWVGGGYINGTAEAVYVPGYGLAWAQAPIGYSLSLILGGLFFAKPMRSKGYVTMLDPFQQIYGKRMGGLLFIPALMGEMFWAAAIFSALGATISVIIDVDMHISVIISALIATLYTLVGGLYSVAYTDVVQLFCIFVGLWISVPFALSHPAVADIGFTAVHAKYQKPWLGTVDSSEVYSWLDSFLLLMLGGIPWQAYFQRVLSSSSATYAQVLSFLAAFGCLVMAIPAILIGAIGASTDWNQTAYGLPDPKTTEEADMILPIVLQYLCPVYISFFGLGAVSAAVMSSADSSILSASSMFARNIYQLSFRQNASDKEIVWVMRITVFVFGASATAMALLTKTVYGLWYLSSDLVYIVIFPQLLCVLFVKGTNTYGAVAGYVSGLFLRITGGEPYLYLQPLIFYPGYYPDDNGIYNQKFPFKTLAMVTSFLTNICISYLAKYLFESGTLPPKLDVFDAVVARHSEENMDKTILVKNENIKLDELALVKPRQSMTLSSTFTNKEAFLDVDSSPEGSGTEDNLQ

[10] = human group III sPLA2 inhibitors, dose response, biochemical, QFRET, IC50 (AID 743457);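 also: green fluorescence rise as the enzyme cleaves BODIPY PC-A2 in liposomes; potency for inhibition of the enzyme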
[11] = T. cruzi growth inhibition in host cells, dose response, cell-based, plate reader, dry powder, set 2 (AID 652275); format: functional
[12] = molecular target: Protein disulfide-isomerase (Homo sapiens, UniProt P07237); assay: PDI inhibitors, insulin turbidity readout, confirmation, biochemical, dry powder samples, set 2 (AID 652146)
Chain of Protein disulfide-isomerase (P07237 whole entry): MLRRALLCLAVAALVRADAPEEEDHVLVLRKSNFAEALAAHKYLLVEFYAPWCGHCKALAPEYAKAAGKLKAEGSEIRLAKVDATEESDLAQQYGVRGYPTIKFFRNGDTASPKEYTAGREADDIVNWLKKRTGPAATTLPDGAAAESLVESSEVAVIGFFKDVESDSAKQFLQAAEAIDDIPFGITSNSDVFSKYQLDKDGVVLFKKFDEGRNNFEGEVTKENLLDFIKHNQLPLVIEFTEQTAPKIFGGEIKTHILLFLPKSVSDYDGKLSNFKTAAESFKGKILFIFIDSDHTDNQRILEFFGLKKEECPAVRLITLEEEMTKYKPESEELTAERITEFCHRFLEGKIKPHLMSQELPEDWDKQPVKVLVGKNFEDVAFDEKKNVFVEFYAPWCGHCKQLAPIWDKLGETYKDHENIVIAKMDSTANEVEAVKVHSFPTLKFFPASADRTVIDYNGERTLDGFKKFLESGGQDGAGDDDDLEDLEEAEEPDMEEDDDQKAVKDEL

[13] = molecular target: Protein Wnt-3a (Mus musculus, UniProt P27467); assay: SAR analysis of small molecule antagonists of Gli-SUFU in a Wnt3a luminescent reporter assay.; format: functional
Chain of Protein Wnt-3a (P27467 whole entry): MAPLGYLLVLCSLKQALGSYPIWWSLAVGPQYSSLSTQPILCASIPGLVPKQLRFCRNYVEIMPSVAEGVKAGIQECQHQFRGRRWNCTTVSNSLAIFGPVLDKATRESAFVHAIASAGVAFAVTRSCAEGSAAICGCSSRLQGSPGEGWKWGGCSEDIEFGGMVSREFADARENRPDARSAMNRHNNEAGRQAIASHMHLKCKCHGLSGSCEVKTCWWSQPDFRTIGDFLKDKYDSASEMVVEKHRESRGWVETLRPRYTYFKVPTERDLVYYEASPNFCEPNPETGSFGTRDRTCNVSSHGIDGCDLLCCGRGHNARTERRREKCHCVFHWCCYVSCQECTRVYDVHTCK

[14] = molecular target: FAD-linked sulfhydryl oxidase ALR (Homo sapiens, UniProt P55789); assay: inhibitors of human ALR sulfhydryl oxidase, dose response, biochemical, H2O2 detection, luminescence, cherry-pick (AID 493248)
Chain of FAD-linked sulfhydryl oxidase ALR (P55789 whole entry, the tested form may be a part): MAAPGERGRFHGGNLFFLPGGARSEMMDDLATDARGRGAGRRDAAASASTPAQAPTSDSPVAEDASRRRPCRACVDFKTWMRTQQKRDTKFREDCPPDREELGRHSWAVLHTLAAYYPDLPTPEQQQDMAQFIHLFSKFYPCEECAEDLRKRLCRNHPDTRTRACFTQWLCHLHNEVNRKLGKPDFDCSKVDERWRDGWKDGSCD

[15] = molecular target: T4, Oxysterols receptor LXR-beta (Homo sapiens, UniProt P55055); format: functional, cell-based;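 also: agonist activity at LXR measured by a cell-based luminescence readout across a dose range, run as a counterscreen for daf-12 agonists; HEK293 cells with Gal4-LXR fusion and GAL4-driven luciferase reporter; potency for activation of Gal4-LXR reporter so compounds are agonists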
T4 sequence (P55055 whole entry): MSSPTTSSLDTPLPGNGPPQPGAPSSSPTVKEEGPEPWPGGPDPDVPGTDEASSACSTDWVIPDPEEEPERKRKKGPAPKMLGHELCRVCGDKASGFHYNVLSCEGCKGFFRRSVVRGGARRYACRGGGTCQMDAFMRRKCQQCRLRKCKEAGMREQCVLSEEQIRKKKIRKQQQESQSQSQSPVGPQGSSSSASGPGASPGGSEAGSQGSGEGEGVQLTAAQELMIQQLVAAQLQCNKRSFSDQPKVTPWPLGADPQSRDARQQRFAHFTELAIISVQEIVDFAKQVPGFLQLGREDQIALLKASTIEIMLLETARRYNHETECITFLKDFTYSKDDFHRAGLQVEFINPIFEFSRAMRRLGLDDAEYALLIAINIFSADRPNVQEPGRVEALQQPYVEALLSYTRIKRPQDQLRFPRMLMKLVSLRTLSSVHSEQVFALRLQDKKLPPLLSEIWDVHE

SMILES: CCOC(=O)c1c(-c2ccccc2)oc2ccc(OCC(O)CNCCN(C)C)cc12 (stereo not drawn)
- EC50 [1]: 1.79 µM (active)
- EC50 [2]: 5.42 µM (active)
- AC50 [3]: 10.3 µM (active)
- IC50 [4]: > 20 µM (inactive)
- AC50 [5]: 11.8 µM (active)
- AC50 [6]: 5 µM (active)

- AC50 [7]: 24.6 µM (active)
- AC50 [6]: 10.5 µM (active)
SMILES: CN(C)CCCN(C(=O)c1ccc([N+](=O)[O-])o1)c1nc2cc3c(cc2s1)OCO3

SMILES: Cc1ncoc1C(=O)Nc1ncc([N+](=O)[O-])s1
- AC50 [8]: 26 µM (active)

- IC50 [9]: 13.2 µM (active)
- IC50 [10]: > 122 µM (inactive)
SMILES: O=C(NN=C(S)Nc1ccc(F)cc1)C1CC1c1ccc(Cl)cc1 (stereo not drawn)

SMILES: O=C(c1ccc(F)cc1)N1CCCCN2[C@@H](CO)[C@H](c3ccc(-c4ccccc4)cc3)[C@@H]2C1
- AC50 [11]: 2.56 µM (active)

SMILES: CC(C)N1CC2(CN(Cc3ccc(-c4cccnc4)cc3)C2)Oc2c(NC(=O)c3ccncc3)cccc2C1=O
- AC50 [11]: 0.179 µM (active)

- AC50 [12]: 5 µM (active)
SMILES: O=C(NC1CCCC1)C1(CCOc2ccccc2)CCN(Cc2ccc(O)c(Cl)c2)CC1

- IC50 [13]: > 21.8 µM (inactive)
SMILES: CCN(CC)c1cc(NC(=O)c2ccccc2)ncn1

- IC50 [13]: > 21.8 µM (inactive)
SMILES: CCN(CC)c1cc(NC(=O)c2cc(OC)cc(OC)c2)ncn1

- AC50 [14]: 907 nM (active)
- EC50 [15]: > 67.5 µM (inactive)
SMILES: Cc1nn(-c2ccccc2)c(Cl)c1/C=N/Nc1ccc(Cl)c(C(=O)O)c1
